Measured values reported in patent US20260200946A1, “KRAS(G12V) INHIBITORS” (Ranok Therapeutics (Hangzhou) Co. Ltd., priority 2022, published 2026).

Assays:
[1] = system: NCIH727 cells; experiment: Cancer cell line proliferation (CellTiter-Glo), NCI-H727; format: cell-based; conditions: Homo sapiens, NCIH727 lung carcinoid, heterozygous G12V
Experimental: Cell lines were cultured essentially according to ATCC recommendations.
SW620 and NCIH727 cells were plated in 384-well tissue culture plates at 1,000 cells/well and incubated at 37° C./5% CO2 for 72 hr in 40 μl of media. […] Each cell line was then treated with test compounds at various concentrations with a final concentration of 0.5% DMSO/well, and then incubated at 37° C./5% CO2 for 72 hr. 40 μl of CellTiter-Glo® Reagent (Promega Corporation, Madison, WI) was added to each well and processed according manufacturer's protocol. Results were analyzed and IC50 values were calculated in GraphPad 8.0 software.

[2] = target: T1, KRAS(G12V)/SOS1 (Homo sapiens, UniProt P01116, G12V); experiment: KRAS(G12V)/SOS1 homogeneous time-resolved fluorescence (HTRF) assay; format: binding; conditions: absence of GTP; 4° C., 3 hours; read-out: HTRF of KRASG12V-SOS1
T1 construct: purchased Cisbio 63ADK000CB18PEH
T1 sequence (P01116 1-188 isoform P01116-2 G12V): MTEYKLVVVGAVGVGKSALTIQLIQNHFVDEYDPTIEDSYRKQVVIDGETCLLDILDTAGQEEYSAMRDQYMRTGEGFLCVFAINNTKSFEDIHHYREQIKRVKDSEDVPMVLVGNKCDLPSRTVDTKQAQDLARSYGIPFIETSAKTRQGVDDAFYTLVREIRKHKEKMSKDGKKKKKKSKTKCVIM
Experimental: Binding of test compounds to KRAS(G12V) target protein, which in turn blocks KRAS(G12V) interaction with the SOS1 protein, was measured in the absences of GTP by homogeneous time-resolved fluorescence using the KRAS-G12V/SOS1 Binding Assay Kit (Cisbio, 63ADK000CB18PEH), following the manufacturer's instructions, except as noted. 3-fold serial dilutions of each test compound were prepared ranging from 20 µM to 1.02 nM. The test compound was mixed and incubated with reaction components, incubated in a sealed plate at 4° C. for 3 hours and fluorescence was measured using a PerkinElmer Envision plate reader. The KRAS(G12V)-SOS1 IC50 values (the concentration of 50% of the maximal inhibition) were calculated using GraphPad Prism 8.0 software.

SMILES | EC50 ([1]; 72 h) [nM] | IC50 [2] [nM] | EC50 ([1]; 72 hr) [nM]
C#CCCC(=O)N1C2CCC1CN(c1nc(OCC3(CN4CCC(F)CC4)CC3)nc3c(F)c(-c4cc(O)cc5ccc(F)c(C#C)c45)nc(OC)c13)C2 [Example 61] | 100 to 1000 | < 100 | 
C#Cc1c(F)ccc2cc(O)cc(-c3nc(OC)c4c(N5CC6CCC(C5)N6C(=O)NCCF)nc(OCC5(CN6CCC(F)CC6)CC5)nc4c3F)c12 [Example 62] | 100 to 1000 | < 100 | 
C#Cc1c(F)ccc2cc(O)cc(-c3ncc4c(N5CC6CCC(C5)N6C(=O)NC5CCOC5)nc(OCC5(CN6CCC(F)CC6)CC5)nc4c3F)c12 (stereo not drawn) [Example 9] | > 1000 | < 100 | 
C#Cc1c(F)ccc2cc(O)cc(-c3ncc4c(N5CC6CCC(C5)N6S(=O)(=O)NCCN(C)C)nc(OCC5(CN6CCC(F)CC6)CC5)nc4c3F)c12 [Example 56] |  | < 100 | 
C#Cc1c(F)ccc2cc(O)cc(-c3nc(OC)c4c(N5CC6CCC(C5)N6C(=O)NC5CCCC5)nc(OCC5(CN6CCC(F)CC6)CC5)nc4c3F)c12 [Example 55] |  | < 100 | 
C#Cc1c(F)ccc2cc(O)cc(-c3ncc4c(N5CC6CCC(C5)N6C(=O)C(O)O)nc(OCC5(CN6CCC(F)CC6)CC5)nc4c3F)c12 [Example 15] | > 1000 | 100 to 1000 | 
C#Cc1c(F)ccc2cc(O)cc(-c3ncc4c(N5CC6CCC(C5)N6)nc(OCC5(CN6CCC(F)CC6)CC5)nc4c3F)c12 [Example 1, 4-(4-(3,8-diazabicyclo[3.2.1]octan-3-yl)-8-fluoro-2-((1-((4-fluoropiperidin-1-yl)methyl)cyclopropyl)methoxy)pyrido[4,3-d]pyrimidin-7-yl)-5-ethynyl-6-fluoronaphthalen-2-ol] |  | 100 to 1000 | 
C#CCC(=O)N1C2CCC1CN(c1nc(OCC3(CN4CCC(F)CC4)CC3)nc3c(F)c(-c4cc(O)cc5ccc(F)c(C#C)c45)ncc13)C2 [Example 54] |  | < 100 | 
C#Cc1c(F)ccc2cc(O)cc(-c3nc(OC)c4c(N5CC6CCC(C5)N6C(=O)CC(F)(F)F)nc(OCC5(CN6CCC(F)CC6)CC5)nc4c3F)c12 [Example 20] |  | < 100 | 
C#Cc1c(F)ccc2cc(O)cc(-c3ncc4c(N5CC6CCC(C5)N6C(=O)CC(C)C)nc(OCC5(CN6CCC(F)CC6)CC5)nc4c3F)c12 [Example 4] | > 1000 | 100 to 1000 | 
C#Cc1c(F)ccc2cc(O)cc(-c3ncc4c(N5CC6CCC(C5)N6C(=O)Nc5ccn[nH]5)nc(OCC5(CN6CCC(F)CC6)CC5)nc4c3F)c12 [Example 10] | > 1000 | < 100 | 
[2H]C([2H])([2H])Oc1nc(-c2cc(O)cc3ccc(F)c(C#C)c23)c(F)c2nc(OCC3(CN4CC5CC5C4)CC3)nc(N3CC4CCC(C3)N4C(=O)C(C)C#N)c12 (stereo not drawn) [Example 118] | 100 to 1000 | < 100 | 
C#Cc1c(F)ccc2cc(O)cc(-c3nc(OC)c4c(N5CC6CCC(C5)N6C(=O)NC(C)(C#N)CC)nc(OCC5(CN6CCC(F)CC6)CC5)nc4c3F)c12 (stereo not drawn) [Example 64] | < 100 | < 100 | 
[2H]C([2H])([2H])Oc1nc(-c2cc(O)cc3ccc(F)c(C#C)c23)c(F)c2nc(OCC3(CN4CC5CC5C4)CC3)nc(N3CC4CCC(C3)N4C(=O)C(C)(C)C#N)c12 (stereo not drawn) [Example 119] | > 1000 | < 100 | 
C#Cc1c(F)ccc2cc(O)cc(-c3nc(OC)c4c(N5CC6CCC(C5)N6C(=O)NC(C)(C)C#N)nc(OCC5(CN6CCC(F)CC6)CC5)nc4c3F)c12 [Example 65] | < 100 | < 100 | 
C#Cc1c(F)ccc2cc(O)cc(-c3nc(OC)c4c(N5CC6CCC(C5)N6C(=O)CCNC)nc(OCC5(CN6CC7CC7C6)CC5)nc4c3F)c12 (stereo not drawn) [Example 157] | > 1000 |  | 

SMILES | EC50 ([1]; 72 h) [nM] | IC50 [2] [nM] | EC50 ([1]; 72 hr) [nM]
C#Cc1c(F)ccc2cc(O)cc(-c3nc(C#C)c4c(N5CC6CCC(C5)N6C(=O)NCC(F)(F)F)nc(OCC5(CN6CCC(F)CC6)CC5)nc4c3F)c12 [Example 100] | 100 to 1000 |  | 
C#Cc1c(F)ccc2cc(O)cc(-c3nc(OC)c4c(N5CC6CCC(C5)N6C(=O)C[C@H](O)C(F)(F)F)nc(OCC5(CN6CC7CC7C6)CC5)nc4c3F)c12 (stereo partly drawn) [Example 180] | 100 to 1000 |  | 
C#Cc1c(F)ccc2cc(O)cc(-c3nc(OC)c4c(N5CC6CCC(C5)N6C(=O)OCC(F)(F)F)nc(OCC5(CN6CC7CC7C6)CC5)nc4c3F)c12 (stereo not drawn) [Example 162] |  |  | 100 to 1000
C#Cc1c(F)ccc2cc(O)cc(-c3nc(OC)c4c(N5CC6CCC(C5)N6C(=O)N(C)CC#N)nc(OCC5(CN6CC7CC7C6)CC5)nc4c3F)c12 (stereo not drawn) [Example 110] | > 1000 |  | 
C#Cc1c(F)ccc2cc(O)cc(-c3nc(OC)c4c(N5CC6CCC(C5)N6C(=O)C5CNC(=O)C5)nc(OCC5(CN6CC7CC7C6)CC5)nc4c3F)c12 (stereo not drawn) [Example 149] | > 1000 |  | 
C#Cc1c(F)ccc2cc(O)cc(-c3nc(OC)c4c(N5CC6CCC(C5)N6C(=O)N[C@@H]5CCC[C@@H]5C#N)nc(OCC5(CN6CC7CC7C6)CC5)nc4c3F)c12 (stereo partly drawn) [Example 195] | 100 to 1000 |  | 
C#Cc1c(F)ccc2cc(O)cc(-c3nc(OC)c4c(N5CC6CCC(C5)N6C(=O)C[C@H](C)C#N)nc(OCC5(CN6CC7CC7C6)CC5)nc4c3F)c12 (single isomer, unassigned) [Example 178] | 100 to 1000 |  | 
C#Cc1c(F)ccc2cc(O)cc(-c3nc(OC)c4c(N5CC6CCC(C5)N6C(=O)N[C@H](C)C(F)(F)F)nc(OCC5(CN6CC7CC7C6)CC5)nc4c3F)c12 (stereo partly drawn) [Example 188] | 100 to 1000 |  | 
C#Cc1c(F)ccc2cc(O)cc(-c3ncc4c(N5CC6CCC(C5)N6C(=O)NCC(C)(C)O)nc(OCC5(CN6CCC(F)CC6)CC5)nc4c3F)c12 [Example 53] |  | < 100 | 
O=CO.[2H]C([2H])([2H])Oc1nc(-c2cc(O)cc3ccc(F)c(C#C)c23)c(F)c2nc(OCC3(CN4CC5CC5C4)CC3)nc(N3CC4CCC(C3)N4C(=O)C(C#N)CC#N)c12 (stereo not drawn) [Example 127] | 100 to 1000 |  | 
C#Cc1c(F)ccc2cc(O)cc(-c3nc(OC)c4c(N5CC6CCC(C5)N6C(=O)CC[N+](=O)[O-])nc(OCC5(CN6CC7CC7C6)CC5)nc4c3F)c12 (stereo not drawn) [Example 128] | 100 to 1000 |  | 
C#Cc1c(F)ccc2cc(O)cc(-c3nc(C#C)c4c(N5CC6CCC(C5)N6C(=O)NC(C)(C)C)nc(OCC5(CN6CCC(F)CC6)CC5)nc4c3F)c12 [Example 74] | 100 to 1000 |  | 
C#Cc1c(F)ccc2cc(O)cc(-c3nc(OC)c4c(N5CC6CCC(C5)N6C(=O)NCC(F)(F)CO)nc(OCC5(CN6CCC(F)CC6)CC5)nc4c3F)c12 [Example 76] | 100 to 1000 |  | 
C#Cc1c(F)ccc2cc(O)cc(-c3nc(OC)c4c(N5CC6CCC(C5)N6C(C)=O)nc(OCC5(CN6CC7CC7C6)CC5)nc4c3F)c12 (stereo not drawn) [Example 120] | 100 to 1000 |  | 
C#Cc1c(F)ccc2cc(O)cc(-c3nc(OC)c4c(N5CC6CCC(C5)N6C)nc(OCC5(CN6CCC(C(F)(F)F)CC6)CC5)nc4c3F)c12 [Example 142] | > 1000 |  | 
C#Cc1c(F)ccc2cc(O)cc(-c3nc(OC)c4c(N5CC6CCC(C5)N6C(=O)COC)nc(OCC5(CN6CC7CC7C6)CC5)nc4c3F)c12 (stereo not drawn) [Example 106] | 100 to 1000 |  | 
